Test results reported in ChEMBL document CHEMBL5131448, “Tumor-microenvironmental-response Bi-functional molecules for efficient imaging and anti-tumor activity therapy” (Eur J Med Chem, 2022).
Calls of active or inactive are those of the source. The calls are words filed in the database; no cut-off is given here.

How the values were obtained:
[1] = tested on: MDA-MB-231; test: Antiproliferative activity against human MDA-MB-231 cells after 72 hrs by MTT assay; type: functional, cell-based; conditions: MDA-MB-231, 72 h
[2] = tested on: EA.hy 926; test: Effect on cell apoptosis in human EA.hy 926 cells assessed as promotion of apoptosis at 0.1 to 40 uM measured after 72 hrs by Annexin V-FITC/propidium iodide staining based flow cytometry; type: functional; conditions: dose 0.1-40 µM
[3] = tested on: EA.hy 926; test: Antiproliferative activity against human EA.hy 926 cells after 72 hrs by MTT assay; type: functional, cell-based; conditions: EA.hy 926, 72 h
[4] = tested on: HEK293; test: Cytotoxicity against human HEK293 cells measured after 72 hrs by MTT assay; type: toxicity, cell-based; conditions: hek293, 72 h
[5] = tested on: EA.hy 926; test: Induction of cell cycle arrest in human EA.hy 926 cells assessed as accumulation of cells at G1-pahse at 0.1 to 40 uM measured after 72 hrs by propidium iodide staining method; type: functional, cell-based; conditions: dose 0.1-40 µM
[6] = tested on: HeLa; test: Antiproliferative activity against human HeLa cells after 72 hrs by MTT assay; type: functional, cell-based
[7] = tested on: A549; test: Antiproliferative activity against human A549 cells after 72 hrs by MTT assay; type: functional, cell-based; conditions: A549, 72 h

Structure (SMILES)	IC50 [1] [µM]	Activity [2]	IC50 [3] [µM]	Activity [4]	Activity [5]	IC50 [6] [µM]	IC50 [7] [µM]
CCN(CC)c1ccc2c(-c3ccccc3C(=O)NCCCCNC(=O)CSSCC(=O)Nc3cccc(-c4cn(Cc5ccc(-c6ccc(OC)nc6)cc5)nn4)c3)c3ccc(=[N+](CC)CC)cc-3oc2c1	35.9	Active	2.96	Non-Toxic	Active	15.8	–
COc1ccc(-c2ccc(Cn3cc(-c4cccc(N)c4)nn3)cc2)cn1	–	Active	–	Non-Toxic	Active	–	–
CCN(CC)c1ccc2c(-c3ccccc3C(=O)NCCCCNC(=O)CSSCC(=O)n3nc(N)c4c(-c5ccc(NC(=O)Nc6cc(C)ccc6F)cc5)cccc43)c3ccc(=[N+](CC)CC)cc-3oc2c1	85	Active	0.03	Non-Toxic	Active	128	22.1
